The record followed here is ChEMBL document CHEMBL2016545, “Discovery of S-777469: an orally available CB2 agonist as an antipruritic agent” (Bioorg Med Chem Lett, 2012).

The target in data set [1] is T1, Cannabinoid receptor 2 (Homo sapiens, UniProt P34972). As to the kind of experiment: Displacement of [3H]-CP55940 from human recombinant CB2 receptor after 60 mins. On the technique in general: Loss of bound radioactivity is the signal in a displacement assay; it reports binding, not function.
T1 sequence (P34972 whole entry): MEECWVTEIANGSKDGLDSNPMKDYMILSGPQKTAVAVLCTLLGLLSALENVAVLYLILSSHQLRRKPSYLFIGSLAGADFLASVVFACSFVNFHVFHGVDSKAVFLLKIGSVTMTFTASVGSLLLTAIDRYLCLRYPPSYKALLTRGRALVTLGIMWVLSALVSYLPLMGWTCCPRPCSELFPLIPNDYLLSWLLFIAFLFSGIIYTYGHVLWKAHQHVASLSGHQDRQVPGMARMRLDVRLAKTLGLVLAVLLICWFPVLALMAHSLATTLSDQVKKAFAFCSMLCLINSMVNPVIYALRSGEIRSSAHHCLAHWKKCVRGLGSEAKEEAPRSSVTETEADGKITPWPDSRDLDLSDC
Data set [2] deals with T2, Cannabinoid receptor 1 (Homo sapiens, UniProt P21554). The data set is described as follows: Displacement of [3H]-CP55940 from human recombinant CB1 receptor after 60 mins.
T2 sequence (P21554 whole entry): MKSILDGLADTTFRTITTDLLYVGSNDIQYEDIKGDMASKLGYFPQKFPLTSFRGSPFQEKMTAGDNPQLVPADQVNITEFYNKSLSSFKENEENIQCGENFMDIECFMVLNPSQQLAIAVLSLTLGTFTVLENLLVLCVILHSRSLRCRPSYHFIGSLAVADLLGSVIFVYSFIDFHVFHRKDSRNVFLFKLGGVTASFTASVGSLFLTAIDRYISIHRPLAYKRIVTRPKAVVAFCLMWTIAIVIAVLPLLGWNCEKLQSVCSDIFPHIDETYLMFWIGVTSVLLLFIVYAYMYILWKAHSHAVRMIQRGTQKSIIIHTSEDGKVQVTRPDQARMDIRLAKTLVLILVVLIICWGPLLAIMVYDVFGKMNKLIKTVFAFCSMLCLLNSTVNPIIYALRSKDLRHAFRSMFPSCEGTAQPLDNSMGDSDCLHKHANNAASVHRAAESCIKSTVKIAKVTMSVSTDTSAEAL
Data set [3] concerns the target T1, Cannabinoid receptor 2. As to the kind of experiment: Agonist activity at human CB2 receptor expressed in CHO cells assessed as inhibition of forskolin-induced cAMP release after 45 mins. Type of data set: functional, cell-based.
The target of data set [4] is T2, Cannabinoid receptor 1. The data set is described as follows: Agonist activity at human CB1 receptor expressed in CHO cells assessed as inhibition of forskolin-induced cAMP release after 25 mins. Type of data set: functional, cell-based.
Data set [5] is filed under the species Mus musculus. As to the kind of experiment: animal or person. As to conditions: ICR, po, 0.5 h, read-out: INH.
Data set [6] is described as follows: Volume of distribution at steady state in rat at 3 mg/kg, iv. Conditions: in vivo, read-out: Vdss. Type of data set: ADME, organism-based. More on the design: dose 3 mg/kg, route intravenous.
Data set [7] in a line: Oral bioavailability in beagle dog at 10 mg/kg. It is filed as ADME, organism-based, Canis lupus familiaris. As to conditions: in vivo.
Data set [8] is described as follows: Clearance in cynomolgus monkey at 3 mg/kg, iv. Type of data set: ADME, organism-based, Macaca fascicularis. On the set-up: dose 3 mg/kg, route intravenous. Conditions: in vivo.
The nature of data set [9]: Half life in beagle dog at 10 mg/kg, po. Type of data set: ADME, organism-based, Canis lupus familiaris. On the set-up: dose 10 mg/kg, route oral. Conditions: in vivo.
Data set [10] in a line: Oral bioavailability in rat at 10 mg/kg. Type of data set: ADME, organism-based. As to conditions: in vivo.
Data set [11] relates to Mus musculus. As to the kind of experiment: Antipruritic activity in ICR mouse assessed as inhibition of compound 48/80-induced scratching at 10 mg/kg, po measured after 30 mins. It is filed as functional. Conditions: 0.5 h.
A short description of data set [12]: Clearance in beagle dog at 3 mg/kg, iv. It is filed as ADME, organism-based, Canis lupus familiaris. On the set-up: dose 3 mg/kg, route intravenous. As to conditions: in vivo.
The subject of data set [13] is Mus musculus. As to the kind of experiment: Antipruritic activity in ICR mouse assessed as inhibition of compound 48/80-induced scratching at 3 mg/kg, po measured after 30 mins. Type of data set: functional. Conditions: 0.5 h.
The nature of data set [14]: Oral bioavailability in cynomolgus monkey at 10 mg/kg. It is filed as ADME, organism-based, Macaca fascicularis. As to conditions: in vivo.
The nature of data set [15]: Half life in rat at 10 mg/kg, po. Type of data set: ADME, organism-based. On the set-up: dose 10 mg/kg, route oral. As to conditions: in vivo.
Data set [16] is described as follows: Half life in cynomolgus monkey at 10 mg/kg, po. Type of data set: ADME, organism-based, Macaca fascicularis. On the set-up: dose 10 mg/kg, route oral. Conditions: in vivo.
A short description of data set [17]: Volume of distribution at steady state in cynomolgus monkey at 3 mg/kg, iv. It is filed as ADME, organism-based, Macaca fascicularis. More on the design: dose 3 mg/kg, route intravenous. Conditions: in vivo, read-out: Vdss.
The nature of data set [18]: Clearance in rat at 3 mg/kg, iv. More on the design: dose 3 mg/kg, route intravenous. Conditions: in vivo. It is filed as ADME, organism-based.
For data set [19], the system named is Mus musculus. The data set is described as follows: Antipruritic activity in ICR mouse assessed as inhibition of compound 48/80-induced scratching at 1 mg/kg, po measured after 30 mins. Conditions: 0.5 h. It is filed as functional.
A short description of data set [20]: Volume of distribution at steady state in beagle dog at 3 mg/kg, iv. It is filed as ADME, organism-based, Canis lupus familiaris. On the set-up: dose 3 mg/kg, route intravenous. As to conditions: in vivo, read-out: Vdss.
Data set [21] has as its system Mus musculus. As to the kind of experiment: Neurotoxicity in ICR mouse assessed as psychoactivity at 0.1 to 1 mg/kg, iv. It is filed as toxicity, organism-based. More on the design: dose 0.1-1 mg/kg, route intravenous. As to conditions: in vivo.

Molecules are shown by their SMILES. Some results are limits rather than exact numbers.

As to `O=C(O)CNC(=O)c1cc2c(n(CC3CCCCC3)c1=O)CCCCCC2`, the Ki is 177 nM in data set [1] and 1060 nM in [2].
For the compound `CCN1CCCC1Cn1c2c(cc(C(=O)NC3(C(=O)O)CCCCC3)c1=O)CCCCCC2` (stereo not given), the Ki in data set [1] turned out to be 2110 nM.
`CCCCn1c2c(cc(C(=O)NC3(C(=O)O)CCCCC3)c1=O)CCCCCC2`: the Ki is 56 nM in data set [1] and over 5000 nM in [2]. In addition, the IC50 was 7 nM in data set [3] and over 2000 nM in data set [4].
Turning to `CCCCn1c(CC)c(C)cc(C(=O)NC2(C(=O)O)CCCCC2)c1=O`, the Ki in [1] was 348 nM.
Take `CC(C)(C(=O)O)c1ccc(C(O)CCCN2CCC(C(O)(c3ccccc3)c3ccccc3)CC2)cc1` (stereo not given) [FEXOFENADINE]: the inhibition in vivo at 30 mg/kg in data set [5] worked out at 39%.
On to `CCc1c(C)cc(C(=O)NC2(C(=O)O)CCCCC2)c(=O)n1Cc1ccc(F)cc1` [S-777469], for which the Vd in [6] was 1.9 L/kg; in [17] it was 0.87 L/kg; in [20] it was 1.23 L/kg. The bioavailability in data set [7] worked out at 18.7%; in data set [10], 37.9%; in data set [14] it was 9.01%. Moreover, the figures for the clearance in data set [8], in data set [12] and in data set [18] were 13.6 mL/min/kg, 6 mL/min/kg and 11.3 mL/min/kg, respectively. Moreover, the results for the half-life in [9], in [15] and in [16] were 12.8 h, 6.2 h and 7.43 h, respectively. Also, the inhibition in vivo at 10 mg/kg in [11] stood at 59%. Further, in data set [13], the inhibition in vivo at 3 mg/kg is 48%. Besides, the Ki in [2] came out at 4070 nM. Besides, the inhibition in vivo at 1 mg/kg in data set [19] came out at 46%. Moreover, the IC50 in data set [4] is over 2000 nM.
Take `O=C(NC1(C(=O)O)CCCCC1)c1cc2c(n(CC3CCCCC3)c1=O)CCCCCC2`: the Ki in data set [1] was 6.7 nM; in data set [2] it was 181 nM. The values for the IC50 in data set [3] and in [4] were 7 nM and 76 nM, respectively. In addition, the Activity entry in [21] is on record as “Non-toxic”.
For the compound `CCCCn1c(CCC)c(Br)cc(C(=O)NC2(C(=O)O)CCCCC2)c1=O`, the Ki in data set [1] was 382 nM; in [2] it was over 5000 nM.
Turning to `O=C(NC1(C(=O)O)CCCCCCC1)c1cc2c(n(CC3CCCCC3)c1=O)CCCCCC2`, the concentration for half-maximal inhibition (IC50) in [3] came to 1 nM.
As for `O=C(NC1(C(=O)O)CCCCC1)c1cc2c(n(Cc3ccc(F)cc3)c1=O)CCCCCC2`, the Ki in [1] was 16 nM; in [2] it was 266 nM. The IC50 was determined as 9 nM in data set [3] and 514 nM in data set [4].
For the compound `N#Cc1ccc(Cn2c3c(cc(C(=O)NC4(C(=O)O)CCCCC4)c2=O)CCCCCC3)cc1`, the values for the Ki in data set [1] and in data set [2] were 144 nM and 3950 nM, respectively.
As to `CCCc1c(CC)cc(C(=O)NC2(C(=O)O)CCCCC2)c(=O)n1Cc1ccc(F)cc1`, the Ki in data set [1] was 263 nM; in data set [2], over 5000 nM.
`O=C(NC1(C(=O)O)CCCC1)c1cc2c(n(CC3CCCCC3)c1=O)CCCCCC2`: the Ki in data set [1] turned out to be 56 nM; in data set [2], 258 nM. In addition, the IC50 amounted to 14 nM in data set [3] and 113 nM in data set [4].
In the case of `COCCn1c2c(cc(C(=O)NC3(C(=O)O)CCCCC3)c1=O)CCCCCC2`, the Ki in data set [1] was 294 nM; in [2], over 5000 nM.
Turning to `O=C(NC1(C(=O)O)CCCCC1)c1cc2c(n(CC3CCCO3)c1=O)CCCCCC2` (stereo not given), the Ki in data set [1] is 247 nM; in data set [2], over 5000 nM.

One may read the Ki as the dissociation constant of the complex between target and ligand, obtained from inhibition or displacement. As usually defined, the IC50 is the midpoint of a concentration-inhibition curve. For orientation: bioavailability means dose-corrected exposure relative to a reference, in per cent. The term clearance denotes a measure of how efficiently the substance is removed, as volume per time. By half-life is commonly meant the time in which the quantity being followed falls by half.
